From ChEMBL document CHEMBL1135887, “Substituted pentacyclic carbazolones as novel muscarinic allosteric agents: synthesis and structure-affinity and cooperativity relationships” (J Med Chem, 2002)

Tests used:
[1] = target: T1, Muscarinic acetylcholine receptor M1 (Homo sapiens) (UniProt P11229); assay: Logarithm of affinity (log 1/M) at the free muscarinic acetylcholine receptor M1 by using semiquantitative equilibrium and off-rate assay
T1 sequence (whole entry): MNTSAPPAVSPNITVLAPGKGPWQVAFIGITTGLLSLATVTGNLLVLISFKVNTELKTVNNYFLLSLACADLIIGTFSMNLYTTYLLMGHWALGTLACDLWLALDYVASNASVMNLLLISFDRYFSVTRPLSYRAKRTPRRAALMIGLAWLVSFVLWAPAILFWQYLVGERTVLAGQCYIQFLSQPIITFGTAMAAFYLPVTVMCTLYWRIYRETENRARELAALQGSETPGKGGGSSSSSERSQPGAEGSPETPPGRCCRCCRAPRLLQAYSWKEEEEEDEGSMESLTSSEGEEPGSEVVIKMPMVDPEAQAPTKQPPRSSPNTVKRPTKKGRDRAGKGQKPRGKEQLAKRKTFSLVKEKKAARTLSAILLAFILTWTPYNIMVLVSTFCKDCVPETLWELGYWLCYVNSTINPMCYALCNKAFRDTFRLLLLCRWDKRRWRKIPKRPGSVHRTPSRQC

[2] = target: T2, Muscarinic acetylcholine receptor M2 (Homo sapiens) (UniProt P08172); assay: Subtype selectivity and the cooperativity with N-methyl Scopolamine (NMS) at Muscarinic acetylcholine receptor M2; Activity range is 1.2-3
T2 sequence (whole entry): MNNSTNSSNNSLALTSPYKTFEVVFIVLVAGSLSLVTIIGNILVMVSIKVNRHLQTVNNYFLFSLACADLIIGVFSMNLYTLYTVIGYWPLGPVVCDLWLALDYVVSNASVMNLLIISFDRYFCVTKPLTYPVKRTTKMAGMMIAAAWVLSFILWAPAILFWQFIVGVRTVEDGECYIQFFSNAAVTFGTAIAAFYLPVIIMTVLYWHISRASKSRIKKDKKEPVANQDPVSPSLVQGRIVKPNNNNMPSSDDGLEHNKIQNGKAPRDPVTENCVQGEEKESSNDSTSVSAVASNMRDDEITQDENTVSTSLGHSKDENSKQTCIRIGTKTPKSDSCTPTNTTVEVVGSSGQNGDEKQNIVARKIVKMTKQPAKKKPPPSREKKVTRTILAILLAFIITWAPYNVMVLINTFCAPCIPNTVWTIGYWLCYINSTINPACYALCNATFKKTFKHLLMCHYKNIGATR

[3] = target: T2, Muscarinic acetylcholine receptor M2 (Homo sapiens); assay: Logarithm of affinity (log 1/M) at the muscarinic acetylcholine receptor M2 by using semiquantitative equilibrium and off-rate assay
[4] = target: T3, Muscarinic acetylcholine receptor M4 (Homo sapiens) (UniProt P08173); assay: Logarithm of affinity (log 1/M) at the muscarinic acetylcholine receptor M4 by using semiquantitative equilibrium and off-rate assay
T3 sequence (whole entry): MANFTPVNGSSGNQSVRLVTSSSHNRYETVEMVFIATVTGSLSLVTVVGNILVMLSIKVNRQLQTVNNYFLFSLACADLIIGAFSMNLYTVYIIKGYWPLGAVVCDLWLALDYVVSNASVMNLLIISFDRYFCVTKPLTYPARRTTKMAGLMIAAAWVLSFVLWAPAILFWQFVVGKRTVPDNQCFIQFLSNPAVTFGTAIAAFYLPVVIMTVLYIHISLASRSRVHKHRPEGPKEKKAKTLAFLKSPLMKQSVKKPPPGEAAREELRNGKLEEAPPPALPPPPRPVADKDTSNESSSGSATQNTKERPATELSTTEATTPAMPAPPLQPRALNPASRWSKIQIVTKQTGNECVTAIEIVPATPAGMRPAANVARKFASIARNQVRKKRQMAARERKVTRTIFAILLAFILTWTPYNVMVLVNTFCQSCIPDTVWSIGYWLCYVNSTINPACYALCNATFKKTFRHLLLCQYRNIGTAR

[5] = target: T1, Muscarinic acetylcholine receptor M1 (Homo sapiens); assay: Subtype selectivity and the cooperativity with N-methyl Scopolamine (NMS) at Muscarinic acetylcholine receptor M1; Activity range is 0.2-0.8
[6] = target: T1, Muscarinic acetylcholine receptor M1 (Homo sapiens); assay: Logarithm of affinity (log 1/M) at the (N-methyl Scopolamine) NMS-liganded muscarinic acetylcholine receptor M1 by using semiquantitative equilibrium and off-rate assay
[7] = target: T3, Muscarinic acetylcholine receptor M4 (Homo sapiens); assay: Subtype selectivity and cooperativity with N-methyl Scopolamine (NMS) at Muscarinic acetylcholine receptor M4; Activity range is 1.2-3
[8] = target: Muscarinic acetylcholine receptor M3 (Homo sapiens) (UniProt P20309); assay: Subtype selectivity and the cooperativity with N-methyl Scopolamine (NMS) at muscarinic acetylcholine receptor M3; Activity range is 0.2-0.8
Sequence of Muscarinic acetylcholine receptor M3 (Homo sapiens) (P20309 whole entry, looked up): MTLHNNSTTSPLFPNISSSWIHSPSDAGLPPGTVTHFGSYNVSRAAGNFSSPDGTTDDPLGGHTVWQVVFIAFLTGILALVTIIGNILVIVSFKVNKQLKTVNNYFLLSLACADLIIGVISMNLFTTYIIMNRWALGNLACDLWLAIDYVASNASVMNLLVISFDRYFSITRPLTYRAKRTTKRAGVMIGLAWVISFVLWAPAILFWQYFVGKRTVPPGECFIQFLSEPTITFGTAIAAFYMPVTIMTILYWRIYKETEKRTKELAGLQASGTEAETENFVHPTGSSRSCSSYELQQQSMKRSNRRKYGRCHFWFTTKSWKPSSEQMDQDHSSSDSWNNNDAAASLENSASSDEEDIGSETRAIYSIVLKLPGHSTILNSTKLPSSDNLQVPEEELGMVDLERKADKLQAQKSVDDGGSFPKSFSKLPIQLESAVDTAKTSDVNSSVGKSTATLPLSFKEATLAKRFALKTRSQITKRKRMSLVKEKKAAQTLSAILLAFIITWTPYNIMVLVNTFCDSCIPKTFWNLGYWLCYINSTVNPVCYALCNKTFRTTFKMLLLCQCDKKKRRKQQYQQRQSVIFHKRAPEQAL

[9] = target: Muscarinic acetylcholine receptor M3 (Homo sapiens) (UniProt P20309); assay: Logarithm of affinity (log 1/M) at the (N-methyl Scopolamine) NMS-liganded muscarinic acetylcholine receptor M3 by using semiquantitative equilibrium and off-rate assay
[10] = target: T2, Muscarinic acetylcholine receptor M2 (Homo sapiens); assay: Logarithm of affinity (log 1/M) at the (N-methyl Scopolamine) NMS-liganded muscarinic acetylcholine receptor M2 by using semiquantitative equilibrium and off-rate assay
[11] = target: T3, Muscarinic acetylcholine receptor M4 (Homo sapiens); assay: Logarithm of affinity (log 1/M) at the (N-methyl Scopolamine) NMS-liganded muscarinic acetylcholine receptor M4 by using semiquantitative equilibrium and off-rate assay
[12] = target: Muscarinic acetylcholine receptor M3 (Homo sapiens) (UniProt P20309); assay: Logarithm of affinity (log 1/M) at the muscarinic acetylcholine receptor M3 by using semiquantitative equilibrium and off-rate assay
[13] = target: T1, Muscarinic acetylcholine receptor M1 (Homo sapiens); assay: Subtype selectivity and the cooperativity with N-methyl Scopolamine (NMS) at Muscarinic acetylcholine receptor M1; Activity range is 1.2-3
[14] = target: T3, Muscarinic acetylcholine receptor M4 (Homo sapiens); assay: Subtype selectivity and the cooperativity with N-methyl Scopolamine (NMS) at Muscarinic acetylcholine receptor M4; Activity range is 0.81-1.19
[15] = target: Muscarinic acetylcholine receptor M3 (Homo sapiens) (UniProt P20309); assay: Subtype selectivity and the cooperativity with N-methyl Scopolamine (NMS) at Muscarinic acetylcholine receptor M3; […]
[16] = target: T3, Muscarinic acetylcholine receptor M4 (Homo sapiens); assay: Subtype selectivity and the cooperativity with N-methyl Scopolamine (NMS) at Muscarinic acetylcholine receptor M4
[17] = target: T1, Muscarinic acetylcholine receptor M1 (Homo sapiens); assay: Subtype selectivity and the cooperativity with N-methyl Scopolamine (NMS) at Muscarinic acetylcholine receptor M1
[18] = target: T2, Muscarinic acetylcholine receptor M2 (Homo sapiens); assay: Subtype selectivity and the cooperativity with N-methyl Scopolamine (NMS) at Muscarinic acetylcholine receptor M2
[19] = target: T3, Muscarinic acetylcholine receptor M4 (Homo sapiens); assay: Subtype selectivity and the cooperativity with N-methyl Scopolamine (NMS) at Muscarinic acetylcholine receptor M4; Activity range is 0.2-0.8

Row | Structure (SMILES) | Log 1/M [1] | Cooperativity [2] | Log 1/M [3] | Log 1/M [4] | Cooperativity [5] | Log 1/M [6] | Cooperativity [7] | Cooperativity [8] | Log 1/M [9] | Log 1/M [10] | Log 1/M [11] | Log 1/M [12] | Cooperativity [13] | Cooperativity [14] | Cooperativity [15] | Cooperativity [16] | Cooperativity [17] | Cooperativity [18] | Cooperativity [19]
1 | COC(=O)c1c2c(c3c4cc(OC)c(OC)cc4n4c3c1CCC4=O)CCNC2 | 5.97 | 3 | 6.22 | 5.86 | 0.8 | 6.05 | 3 | 0.8 | 4.9 | 6.37 | 5.96 | 5.11 | – | – | – | – | – | – | –
2 | O=C1CCc2cc3c(c4c5ccccc5n1c24)CCNC3 | 5.49 | 3 | 5.31 | 4.99 | – | 5.49 | 3 | 0.8 | 4.64 | 5.49 | 5.37 | 4.88 | 3 | – | – | – | – | – | –
3 | COc1cccc2c3c4c(cc5c3n(c12)C(=O)CC5)CNCC4 | 5.4 | 3 | 5.19 | 5.97 | 0.8 | 5.07 | 3 | 0.8 | 4.75 | 5.55 | 5.11 | 5.06 | – | – | – | – | – | – | –
4 | COc1cccc2c1c1c3c(cc4c1n2C(=O)CC4(C)C)CNCC3 | 6.65 | 3 | 6.21 | 5.94 | 0.8 | 5.54 | – | 0.8 | 4.83 | 6.16 | 5.79 | 4.92 | – | 1.19 | – | – | – | – | –
5 | O=C1CCc2cc3c(c4c5ccc(O)cc5n1c24)CCNC3 | 6.01 | 3 | 5.24 | 5.38 | 0.8 | 5.62 | 3 | – | 5.29 | 5.34 | 5.36 | 5.23 | – | – | 1.19 | – | – | – | –
6 | O=C1CCc2cc3c(c4c5c(O)cccc5n1c24)CCNC3 | 5.84 | – | 5.99 | 5.6 | – | 6.11 | – | – | 5.27 | 6.28 | 6.13 | 5.43 | – | – | 1.19 | > 3 | > 3 | > 3 | –
7 | COc1ccc2c(c1)c1c3c(cc4c1n2C(=O)CC4)CNCC3 | 5.78 | 3 | 5.96 | 5.6 | 0.8 | 5.23 | – | 0.8 | 4.54 | 6.15 | 5.57 | 5.04 | – | 1.19 | – | – | – | – | –
8 | O=C1CCc2cc3c(c4c5ccccc5n1c24)CNCC3 | 5.85 | 3 | 5.51 | 5.31 | 0.8 | 5.7 | 3 | 0.8 | 4.69 | 5.57 | 5.48 | 5.78 | – | – | – | – | – | – | –
9 | O=C1CCc2cc3c(c4c5c(Cl)cccc5n1c24)CCNC3 | 6.24 | – | 6.6 | 6.26 | – | 6.58 | 3 | – | 6.05 | 7.12 | 6.66 | 5.92 | 3 | – | 1.19 | – | – | > 3 | –
10 | O=C(O)c1ccc2c(c1)c1c3c(cc4c1n2C(=O)CC4)CNCC3 | 5.43 | – | 5.31 | 5.39 | 0.8 | 4.57 | – | 0.8 | 3.94 | 5.6 | 5.32 | 4.51 | – | – | – | > 3 | – | > 3 | –
11 | Cc1ccc2c(c1)c1c3c(cc4c1n2C(=O)CC4)CNCC3 | 5.9 | 3 | 6.09 | 6.26 | 0.8 | 5.69 | 3 | 0.8 | 5.08 | 6.47 | 5.97 | 5.71 | – | – | – | – | – | – | –
12 | CC1(C)CC(=O)n2c3ccccc3c3c4c(cc1c32)CCNC4 | 5.6 | 3 | 5.69 | 5.42 | – | 5.69 | 3 | 0.8 | 4.56 | 5.87 | 5.8 | 4.86 | 3 | – | – | – | – | – | –
13 | O=C1CCc2cc3c(c4c5cccc(O)c5n1c24)CCNC3 | 5.49 | 3 | 5.36 | 5.43 | 0.8 | 5.38 | – | 0.8 | 4.37 | 5.67 | 5.25 | 5.06 | – | – | – | – | – | – | 0.8
14 | O=C1CCc2cc3c(c4c5cc(CN6CCOCC6)ccc5n1c24)CCNC3 | 5.47 | 3 | 5.53 | 6.12 | 0.8 | 5.35 | – | 0.8 | 3.93 | 5.79 | 5.35 | 4.56 | – | 1.19 | – | – | – | – | –
15 | COc1ccc2c3c4c(cc5c3n(c2c1)C(=O)CC5)CNCC4 | 5.84 | 3 | 5.9 | 4.64 | – | 6.07 | 3 | 0.8 | 5.2 | 6.35 | 6.14 | 5.33 | 3 | – | – | – | – | – | –
16 | COC(=O)c1cccc2c1c1c3c(cc4c1n2C(=O)CC4)CNCC3 | 5.47 | 3 | 5.5 | 5.6 | 0.8 | 5.34 | – | 0.8 | 4.78 | 5.82 | 5.58 | 4.98 | – | – | – | – | – | – | 0.8
17 | O=C1CCc2cc3c(c4c5ccc(Cl)cc5n1c24)CCNC3 | 6.06 | 3 | 6.46 | 5.61 | – | 6.51 | – | – | 5.48 | 6.81 | 6.47 | 5.39 | 3 | – | 1.19 | > 3 | – | – | –
